Test results taken from patent US8906952B2, “Indole derivative or pharmaceutically acceptable salt thereof, preparation method thereof, and pharmaceutical composition for preventing or treating metabolic diseases containing same as active ingredient” (Korea Research Institute of Bioscience and Biotechnology, priority 2011, dated 2014).
Like-named read-outs stand apart in the source and are kept apart here.

Key:
Assay type in all cases: biochemical
human DGAT2 = molecular target: T1, human DGAT2 (Homo sapiens, UniProt Q96PD7); assay: DGAT enzyme inhibition test, hDGAT2 enzyme from sf9 insect cells (DGAT2 selectivity)
T1 construct: made in house; host or cells: sf9 insect cells
T1 sequence (Q96PD7 1-388): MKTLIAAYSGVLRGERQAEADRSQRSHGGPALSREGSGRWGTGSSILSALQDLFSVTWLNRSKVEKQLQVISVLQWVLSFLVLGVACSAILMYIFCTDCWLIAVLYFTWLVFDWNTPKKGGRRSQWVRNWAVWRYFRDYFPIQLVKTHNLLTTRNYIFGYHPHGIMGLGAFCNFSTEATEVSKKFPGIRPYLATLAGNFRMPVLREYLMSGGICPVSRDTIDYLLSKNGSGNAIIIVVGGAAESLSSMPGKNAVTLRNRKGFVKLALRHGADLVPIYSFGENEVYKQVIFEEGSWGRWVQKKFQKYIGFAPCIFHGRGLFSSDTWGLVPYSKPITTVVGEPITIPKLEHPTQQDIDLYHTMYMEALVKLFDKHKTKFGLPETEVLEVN
Description: (§1) To investigate inhibitory effect of the compounds of Examples 1-33 against DGAT enzyme activity, DGAT enzyme inhibition and DGAT2 selectivity were investigated using zymogen including:
(§2) 1) hDGAT1 and hDGAT2 enzymes, derived from insect cell overexpressing human DGAT1 and DGAT2 (‘sf9’), respectively,
(§3) To be specific, for the purpose of measuring human-derived DGAT enzyme inhibitory activity, using the zymogen, including enzymes derived from insect cell overexpressing human DGAT1 and DGAT2 (‘sf9’), microsomal protein isolated from human duodenal adenocarcinoma (‘Hutu 80’), and microsomal protein isolated from rat, and according to Coleman et al., (Methods Enzymol., 98-103, 1992), and substrate including 1,2-diacylglycerol(Sigma, D0138) and [^14C]palmitoyl-CoA (Amersham, CFA583), the amount of radiation of [^14C]triacylglycerol produced after enzymatic reaction was measured.
(§4) To be more specific, to the reaction solution containing 175 mM Tris-HCl (pH 8.0), 20 μl bovine serum albumin (10 mg/ml), 100 mM magnesium chloride, 30 μM [^14C]palmitoyl CoA (0.02 μCi, Amersham) and 200 μM 1,2-dioleoylglycerol, reagent dissolved in dimethylsulfoxide (10.0 μl) was added. After introducing 100 to 200 μg isolated microsomal protein and allowing the same to react at 25° C. for 10 min, the reaction was stopped by adding 1.5 ml stop solution (2-propanol:heptane:water=80:20:2, v:v:v). To isolate the product of the reaction (i.e., [^14C]triacylglycerol), 1 ml heptane and 0.5 ml distilled water were added and then decocted. After taking 1 ml supernatant, 2 ml alkaline ethanol solution (ethanol:0.5 N sodium hydroxide:water=50:10:40, v:v:v) were added and then decocted. After taking 0.65 ml supernatant from the decoction, the amount of radiation was measured with liquid scintillation counter (LSC). The DGAT inhibitory activity was calculated with Mathematical Expression 1 below:
(§5) T denotes cpm of experimental group in which the enzymatic reaction solution was treated with the sample,
(§6) C denotes cpm of control group in which the enzymatic reaction solution was not treated with the sample, and
(§7) B denotes cpm of control group treated with the sample without zymogen.

DGAT-1 (rat liver) = molecular target: T2, DGAT-1 (rat liver) (Rattus norvegicus, UniProt Q9ERM3); assay: DGAT enzyme inhibition test, rat liver-derived DGAT enzyme; conditions: rat liver microsomal protein
T2 construct: microsomal protein isolated from rat; from tissue; host or cells: rat liver microsomes
T2 sequence (Q9ERM3 1-498): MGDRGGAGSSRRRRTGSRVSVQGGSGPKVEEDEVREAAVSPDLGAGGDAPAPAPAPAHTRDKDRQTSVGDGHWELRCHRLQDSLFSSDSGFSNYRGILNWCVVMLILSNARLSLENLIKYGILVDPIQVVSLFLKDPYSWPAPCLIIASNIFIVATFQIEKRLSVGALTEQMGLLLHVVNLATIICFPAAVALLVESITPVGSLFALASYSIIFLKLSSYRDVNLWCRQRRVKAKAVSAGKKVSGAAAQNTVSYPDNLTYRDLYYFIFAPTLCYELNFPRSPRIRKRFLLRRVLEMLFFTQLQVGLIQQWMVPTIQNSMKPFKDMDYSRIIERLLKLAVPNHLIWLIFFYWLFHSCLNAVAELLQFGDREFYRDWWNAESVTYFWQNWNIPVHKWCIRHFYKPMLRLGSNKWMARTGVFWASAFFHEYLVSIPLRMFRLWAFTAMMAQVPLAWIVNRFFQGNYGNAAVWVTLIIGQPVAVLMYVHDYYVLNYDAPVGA
Description: as §1
3) rat liver-derived DGAT enzyme.
as §3, §4, §5, §6, §7

human DGAT1 = molecular target: T3, human DGAT1 (Homo sapiens, UniProt O75907); assay: DGAT enzyme inhibition test, hDGAT1 enzyme from sf9 insect cells; conditions: enzyme from sf9 cells overexpressing hDGAT1; read-out: hDGAT-1 (sf9) IC50
T3 construct: made in house; host or cells: sf9 insect cells
T3 sequence (O75907 1-488): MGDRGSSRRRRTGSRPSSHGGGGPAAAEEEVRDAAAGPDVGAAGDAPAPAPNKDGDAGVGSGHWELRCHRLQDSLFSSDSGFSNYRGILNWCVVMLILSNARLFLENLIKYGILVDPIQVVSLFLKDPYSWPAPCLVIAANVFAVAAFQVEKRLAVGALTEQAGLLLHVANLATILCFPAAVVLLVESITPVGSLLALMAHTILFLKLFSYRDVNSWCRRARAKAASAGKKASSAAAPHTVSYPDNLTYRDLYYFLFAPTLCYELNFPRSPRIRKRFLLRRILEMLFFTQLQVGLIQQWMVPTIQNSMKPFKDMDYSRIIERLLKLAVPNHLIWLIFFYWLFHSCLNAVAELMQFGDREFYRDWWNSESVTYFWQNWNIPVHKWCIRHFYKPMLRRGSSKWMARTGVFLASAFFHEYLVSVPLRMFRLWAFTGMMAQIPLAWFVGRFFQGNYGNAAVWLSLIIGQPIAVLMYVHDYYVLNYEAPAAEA
Description: as §1, §2, §3, §4, §5, §6, §7

hDGAT-1 (HuTu 80) = molecular target: T4, hDGAT-1 (HuTu 80) (Homo sapiens, UniProt O75907); assay: DGAT enzyme inhibition test, microsomal protein from human duodenal adenocarcinoma (Hutu 80); conditions: microsomal protein from HuTu 80
T4 construct: microsomal protein isolated from human duodenal adenocarcinoma (‘Hutu 80’); endogenous in cells; host or cells: HuTu 80 human duodenal adenocarcinoma cells (microsomes)
T4 sequence (O75907 1-488): T3 sequence (O75907 1-488)
Description: as §1
2) DGAT enzyme derived from human duodenal adenocarcinoma (‘Hutu 80’), and
as §3, §4, §5, §6, §7

[1] = 10 μM, enzyme from sf9 cells overexpressing hDGAT2, read-out: hDGAT-2 (sf9) inhibition rate(%)at 10 μM
[2] = concentration of 10 μM, read-out: hDGAT2 inhibition

Row | Compound | inhibition at 10 µM (human DGAT2; [1]) | IC50 (DGAT-1 (rat liver)) | IC50 (human DGAT1) | IC50 (hDGAT-1 (HuTu 80)) | inhibition at 10 µM (human DGAT2; [2])
1 | CC(C)N(NC(=O)c1cccc(OCC(N)=O)c1)C(=O)/C=C/c1cn(C(=O)OC(C)(C)C)c2ccccc12 [Example 20, (E)-tert-butyl 3-(3-(2-(3-(2-amino-2-oxoethoxy)benzoyl)-1-isopropylhydrazinyl)-3-oxoprop-1-enyl)-1H-indole-1-carboxylate] | < 0% | > 100 µM | > 100 µM | 73.3 µM | –
2 | CC(C)N(NC(=O)c1ccccc1)C(=O)/C=C/c1c[nH]c2ccccc12 [Example 22, (E)-N′-(3-(1H-indol-3-yl)acryloyl)-N′-isopropylbenzohydrazide] | < 0% | 33 µM | > 100 µM | 44.6 µM | –
3 | CC(C)N(NC(=O)c1ccccn1)C(=O)/C=C/c1cn(C(=O)OC(C)(C)C)c2ccccc12 [Example 2, (E)-tert-butyl 3-(3-(1-isopropyl-2-picolinoylhydrazinyl)-3-oxoprop-1-enyl)-1H-indole-1-carboxylate] | < 0% | 7.6 µM | > 100 µM | 11.2 µM | –
4 | CC(C)(C)OC(=O)n1cc(/C=C/C(=O)NNC(=O)c2ccccc2)c2ccccc21 [Example 16, (E)-tert-butyl 3-(3-(2-benzoylhydrazinyl)-3-oxoprop-1-enyl)-1H-indole-1-carboxylate] | 3.7% | 26.3 µM | > 100 µM | 10.7 µM | –
5 | CC(C)N(NC(=O)c1cccnc1)C(=O)/C=C/c1cn(C(=O)OC(C)(C)C)c2ccccc12 [Example 3, (E)-tert-butyl 3-(3-(1-isopropyl-2-nicotinoylhydrazinyl)-3-oxoprop-1-enyl)-1H-indole-1-carboxylate] | < 0% | 3.9 µM | > 100 µM | 6.5 µM | –
6 | COC(=O)COc1cccc(C(=O)NN(C(=O)/C=C/c2cn(C(=O)OC(C)(C)C)c3ccccc23)C(C)C)c1 [Example 18, (E)-tert-butyl 3-(3-(1-isopropyl-2-(3-(2-methoxy-2-oxoethoxy)benzoyl)hydrazinyl)-3-oxoprop-1-enyl)-1H-indole-1-carboxylate] | < 0% | 20.3 µM | > 100 µM | 3.2 µM | –
7 | CC(C)N(NC(=O)c1ccc(Cl)cc1)C(=O)/C=C/c1cn(C(=O)OC(C)(C)C)c2ccccc12 [Example 14, (E)-tert-butyl 3-(3-(2-(4-chlorobenzoyl)-1-isopropylhydrazinyl)-3-oxoprop-1-enyl)-1H-indole-1-carboxylate] | < 0% | 2.8 µM | 8.8 µM | 2.7 µM | < 11%
8 | CC(C)(C)OC(=O)n1cc(/C=C/C(=O)NNS(=O)(=O)c2ccccc2)c2ccccc21 [Example 17, (E)-tert-butyl 3-(3-oxo-3-(2-(phenylsulfonyl)hydrazinyl)prop-1-enyl)-1H-indole-1-carboxylate] | < 0% | 83.6 µM | > 100 µM | > 100 µM | –
9 | COCCOc1cccc(C(=O)NN(C(=O)/C=C/c2cn(C(=O)OC(C)(C)C)c3ccccc23)C(C)C)c1 [Example 10, (E)-tert-butyl 3-(3-(1-isopropyl-2-(3-(2-methoxyethoxy)benzoyl)hydrazinyl)-3-oxoprop-1-enyl)-1H-indole-1-carboxylate] | 8.3% | 2.6 µM | 36.4 µM | 7.7 µM | < 11%
10 | CC(C)N(NC(=O)c1cccc(OCC(=O)O)c1)C(=O)/C=C/c1cn(C(=O)OC(C)(C)C)c2ccccc12 [Example 19, (E)-2-(3-(2-(3-(1-(tert-butoxycarbonyl)-1H-indol-3-yl)acryloyl)-2-isopropylhydrazinecarbonyl)phenoxy)acetic acid] | < 0% | 45.5 µM | > 100 µM | > 100 µM | –
11 | COc1ccc(C(=O)NN(C(=O)/C=C/c2cn(C(=O)OC(C)(C)C)c3ccccc23)C(C)C)cc1 [Example 7, (E)-tert-butyl 3-(3-(1-isopropyl-2-(4-methoxybenzoyl)hydrazinyl)-3-oxoprop-1-enyl)-1H-indole-1-carboxylate] | < 0% | 8.7 µM | > 100 µM | 11.6 µM | –

These reach a lower IC50 (DGAT-1 (rat liver)). Values come first.

Row | inhibition at 10 µM (human DGAT2; [1]) | IC50 (DGAT-1 (rat liver)) | IC50 (human DGAT1) | IC50 (hDGAT-1 (HuTu 80)) | inhibition at 10 µM (human DGAT2; [2]) | Compound
12 | 0.3% | 2.1 µM | > 100 µM | 5.2 µM | – | COc1cccc(C(=O)NN(C(=O)/C=C/c2cn(C(=O)OC(C)(C)C)c3ccccc23)C(C)C)c1 [Example 6, (E)-tert-butyl 3-(3-(1-isopropyl-2-(3-methoxybenzoyl)hydrazinyl)-3-oxoprop-1-enyl)-1H-indole-1-carboxylate]
13 | < 0% | 1.9 µM | 24.6 µM | 4.6 µM | < 11% | CC(C)N(NC(=O)c1ccccc1)C(=O)/C=C/c1cn(C2CC2)c2ccccc12 [Example 29, (E)-N′-(3-(1-cyclopropyl-1H-indol-3-yl)acryloyl)-N′-isopropylbenzohydrazide]
14 | < 0% | 1.4 µM | 5.3 µM | 2.1 µM | < 11% | CC(C)N(NC(=O)c1ccccc1)C(=O)/C=C/c1cn(C(=O)CC(C)(C)C)c2ccccc12 [Example 33, (E)-N′-(3-(1-(3,3-dimethylbutanoyl)-1H-indol-3-yl)acryloyl)-N′-isopropylbenzohydrazide]
15 | 11% | 0.7 µM | 5.7 µM | 0.97 µM | < 11% | CC(C)N(NC(=O)c1ccccc1)C(=O)/C=C/c1cn(C(=O)c2ccccc2)c2ccccc12 [Example 32, (E)-N′-(3-(1-benzoyl-1H-indol-3-yl)acryloyl)-N′-isopropylbenzohydrazide]
16 | < 0% | 0.4 µM | 20.4 µM | 1.1 µM | < 11% | CC(C)N(NC(=O)c1cccc(F)c1)C(=O)/C=C/c1cn(C(=O)OC(C)(C)C)c2ccccc12 [Example 15, (E)-tert-butyl 3-(3-(2-(3-fluorobenzoyl)-1-isopropylhydrazinyl)-3-oxoprop-1-enyl)-1H-indole-1-carboxylate]
